SMILES strings stand for the structures. Some results are limits rather than exact numbers.

The target of one test is T1, purified recombinant mouse ENPP1 (Mus musculus (Mouse), UniProt P06802). Description: ENPP1 enzyme activity assay using 32P cGAMP as a substrate (TLC). The format is biochemical. To be noted: 32P-cGAMP 5 μM, mouse ENPP1 20 nM, pH 7.5, 5 hours.
T1 sequence (P06802 whole entry): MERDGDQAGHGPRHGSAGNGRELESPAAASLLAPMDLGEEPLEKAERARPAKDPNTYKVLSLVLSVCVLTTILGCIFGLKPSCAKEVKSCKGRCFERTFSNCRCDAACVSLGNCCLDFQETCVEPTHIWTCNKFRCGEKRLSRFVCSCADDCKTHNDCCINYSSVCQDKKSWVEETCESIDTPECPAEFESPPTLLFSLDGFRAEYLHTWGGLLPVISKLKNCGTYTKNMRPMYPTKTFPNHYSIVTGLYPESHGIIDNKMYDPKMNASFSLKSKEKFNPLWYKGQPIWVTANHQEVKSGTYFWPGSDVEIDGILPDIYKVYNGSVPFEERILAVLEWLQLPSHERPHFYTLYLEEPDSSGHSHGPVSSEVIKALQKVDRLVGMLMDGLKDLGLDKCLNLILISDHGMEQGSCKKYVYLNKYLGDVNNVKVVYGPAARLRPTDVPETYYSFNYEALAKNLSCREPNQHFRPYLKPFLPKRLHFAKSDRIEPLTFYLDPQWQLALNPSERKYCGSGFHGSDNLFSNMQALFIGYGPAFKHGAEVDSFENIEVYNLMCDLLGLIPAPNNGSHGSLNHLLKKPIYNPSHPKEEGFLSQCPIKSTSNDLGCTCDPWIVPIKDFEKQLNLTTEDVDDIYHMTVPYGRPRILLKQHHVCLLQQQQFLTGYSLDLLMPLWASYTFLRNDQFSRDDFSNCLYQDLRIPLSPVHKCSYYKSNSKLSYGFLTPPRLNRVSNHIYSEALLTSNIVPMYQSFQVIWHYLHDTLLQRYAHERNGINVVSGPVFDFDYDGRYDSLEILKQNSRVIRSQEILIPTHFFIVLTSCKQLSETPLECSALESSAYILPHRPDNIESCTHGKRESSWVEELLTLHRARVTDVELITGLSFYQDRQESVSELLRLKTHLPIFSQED
Regarding `COc1ccc2c(N3CCC(CCP(=O)(O)O)CC3)ncnc2c1` [Compound 10], the IC50 is under 0.5 µM. On the same count and under the same terms, then `COc1cc2ncnc(N3CCN(C(=O)CP(=O)(O)O)CC3)c2cc1OC` [Compound 75], with 0.5 to 5 µM; and `COc1cccc2c(N3CCC(CCP(=O)(O)O)CC3)ncnc12` [Compound 76], with under 0.5 µM; and `COc1ccc2c(N3CCC(CCP(=O)(O)O)CC3)nc(/C=C/c3cccnc3)nc2c1` [Compound 18], with under 0.5 µM.

In the next test the target is T1, purified recombinant mouse ENPP1. Briefly: ENPP1 activity assay using thymidine monophosphate paranitrophenol (TMP-pNP) as a substrate. The format is biochemical. As to conditions: TMP-pNP 2 μM, mouse ENPP1 0.5 nM, pH 7.5. As for the experimental part: Selected compounds of Table 1, Table 2 and other derivatives were prepared and assessed in an ENPP1 activity assay using thymidine monophosphate paranitrophenol (TMP-pNP) as a substrate. Enzyme reactions were prepared with TMP-pNP (2 μM), 5-fold dilutions of ENPP1 inhibitor, and purified recombinant mouse ENPP1 (0.5 nM) in 100 mM Tris, 150 mM NaCl, 2 mM CaCl2, 200 μM ZnCl2, pH 7.5 at room temperature. Reaction progress was monitored by measuring absorbance at 400 nm of paranitrophenolate produced by the reaction for 20 minutes.
As to `CC(C)Oc1ccc2c(N3CCC(CCP(=O)(O)O)CC3)ncnc2c1` [Compound 11], the IC50 was over 10 µM. Still for that read-out and setting: then `COc1ccc(OC)c2c(N3CCC(CCP(=O)(O)O)CC3)ncnc12` [Compound 16], with 0.5 to 5 µM. Consider `CNC(=O)NCC1CCN(c2ncnc3cc(OC)c(OC)cc23)CC1` [Compound 73], for which the IC50 is over 10 µM. For the compound `COc1cccc2c(N3CCC(COP(=O)(O)O)CC3)ncnc12` [Compound 86], the IC50 was under 0.5 µM. For `COc1cc2ncnc([C@H]3CC[C@@H](CCP(=O)(O)O)CC3)c2cc1OC` [Compound 81, (2-((1,4-cis)-4-(6,7-dimethoxyquinazolin-4-yl)cyclohexyl)ethyl)phosphonic acid], the IC50 was under 0.5 µM. `Nc1ccc2c(N3CCC(CCP(=O)(O)O)CC3)ncnc2c1` [Compound 30]: the IC50 is under 0.5 µM.

In the case of `COc1cc2ccnc(N3CCC(CCP(=O)(O)O)CC3)c2cc1OC` [Compound 38], the IC50 is under 0.5 µM.

Consider `O=P(O)(O)CCC1CCN(c2ncnc3cccc(F)c23)CC1` [Compound 70], for which the IC50 was under 0.5 µM.

For `O=P(O)(O)CCC1CCN(c2ncnc3ccc(O)cc23)CC1` [Compound 23], the IC50 lay in the range of 0.5 to 5 µM. On the same count and under the same terms, then `COc1cc(OC)c2ncnc(N3CCC(CCP(=O)(O)O)CC3)c2c1` [Compound 7], with under 0.5 µM; and `COc1ccc2c(N3CCN(CCP(=O)(O)O)CC3)ncnc2c1` [Compound 42], with over 10 µM. With `COc1ccc2c(N3CCC(CCP(=O)(O)O)CC3)ncnc2c1` [Compound 10], the IC50 is under 0.5 µM.

As to `COc1ccc2ncnc(N3CCC(CCP(=O)(O)O)CC3)c2c1` [Compound 19], the IC50 is under 0.5 µM. Still for that read-out and setting: then `COc1cc2ncnc(N3CCC(CCB(O)O)CC3)c2cc1OC` [Compound 87], with under 0.5 µM.

In the case of `COc1cc2ncnc(N3CCN(C(=O)CP(=O)(O)O)CC3)c2cc1OC` [Compound 75], the IC50 is under 0.5 µM.

As to `Cc1nccn1-c1cc(N2CCN(CCP(=O)(O)O)CC2)ncn1` [Compound 100], the IC50 was under 0.5 µM. Regarding `COc1cc2ncnc(N3CCC(CC(=O)NO)CC3)c2cc1OC` [Compound 61], the IC50 was 0.5 to 5 µM. In the case of `O=P(O)(O)CCC1CCN(c2ncnc3ccccc23)CC1` [Compound 25], the IC50 was under 0.5 µM. Same read-out and setting: in the case of `COc1cccc2c(N3CCC(CCP(=O)(O)O)CC3)ncnc12` [Compound 76] it was under 0.5 µM; in that of `O=P(O)(O)CCC1CCN(c2ncnc3cc(Cl)ccc23)CC1` [Compound 84], under 0.5 µM. On the same count and under the same terms, in the case of `O=P(O)(O)CCC1CCN(c2ncnc3cc4c(cc23)OCCO4)CC1` [Compound 13] it was 0.5 to 5 µM; in that of `COc1ccc2c(N3CCC(CCP(=O)(O)O)CC3)nc(/C=C/c3cccnc3)nc2c1` [Compound 18], under 0.5 µM; in that of `Cc1nccn1-c1cc(N2CCC(CCP(=O)(O)O)CC2)ncn1` [Compound 93], under 0.5 µM. Still for that read-out and setting: then `COc1cc2nccc(N3CCC(CCP(=O)(O)O)CC3)c2cc1OC` [Compound 71], with under 0.5 µM; and `COc1cc2ncnc(N3CCC(COP(=O)(O)O)CC3)c2cc1OC` [Compound 60], with under 0.5 µM.

Take `COc1cc2ncnc([C@H]3CC[C@H](CCP(=O)(O)O)CC3)c2cc1OC` [Compound 82, (2-((1,4-trans)-4-(6,7-dimethoxyquinazolin-4-yl)cyclohexyl)ethyl)phosphonic acid]: the concentration for half-maximal inhibition (IC50) is under 0.5 µM. The same measure, in the same setting: then `COc1cc2ncnc(N3CCC(CCP(O)(O)=S)CC3)c2cc1OC` [Compound 83, (2-(1-(6,7-dimethoxyquinazolin-4-yl)piperidin-4-yl)ethyl)phosphonothioic O,O-acid], with under 0.5 µM; and `COc1ccc2c(N3CCC(CCP(=O)(O)O)CC3)nc(C)nc2c1` [Compound 12], with under 0.5 µM. Still for that read-out and setting: then `COc1ccc2c(N3CCC(CCP(=O)(O)O)CC3)ncnc2c1OC` [Compound 22], with under 0.5 µM. `COc1cc2ncnc(N3CCC(COP(O)(O)=S)CC3)c2cc1OC` [Compound 67]: the IC50 was under 0.5 µM. Turning to `O=P(O)(O)CCC1CCN(c2ncnc3cc(O)ccc23)CC1` [Compound 5], the IC50 was under 0.5 µM.

For `COc1cc2ncnc(N3CCC(CP(=O)(O)O)CC3)c2cc1OC` [Compound 88, ((1-(6,7-dimethoxyquinazolin-4-yl)piperidin-4-yl)methyl)phosphonic acid], the IC50 was under 0.5 µM.

Another test concerns 4T1-luciferase tumor. Description: 4T1 tumor model: tumor volume and survival with IR, cGAMP, anti-CTLA-4. It counts as in vivo, Balb/c mice. To be noted: 20 Gy IR, then single agent intratumorally on day 2, 4 and 7 (100 μL of 100 μM compound 1 or 10 μg cGAMP).
Regarding `Nc1nc2c(ncn2[C@@H]2O[C@@H]3COP(=O)(O)O[C@H]4[C@@H](O)[C@H](n5cnc6c(N)ncnc65)O[C@@H]4COP(=O)(O)O[C@@H]2[C@@H]3O)c(=O)[nH]1` [cGAMP, cyclic guanosine monophosphate-adenosine monophosphate], the “tumor shrinkage effect over IR treatment” value is on record as “no effect over IR treatment”.

Usually IC50 stands for the concentration needed to halve the response being measured.

The values are drawn from patent publication US20230277570A1, “ENPP1 Inhibitors and Their Use for the Treatment of Cancer” (The Board of Trustees of the Leland Stanford Junior …, priority 2017, published 2023).
